Like-named read-outs stand apart in the source and are kept apart here.
What was measured:
HepG2 [1] = assay: Cell cycle analysis by flow cytometry; assay type: cell-based, human; settings: IC50 concentration, 96 h
Method: (§1) CycleTEST™ PLUS DNA Reagent Kit (Becton Dickinson GmbH, Heidelberg, Germany) for cell cycle analysis was used, according to the instructions of the manufacturer. Briefly, the cells were harvested with trypsin, washed with PBS, and resuspended in CycleTEST Buffer. The cells were centrifuged and resuspended in solution A. After incubation for 10 min at room temperature, solution B was added and incubated. After adding solution C, the samples were incubated at 4°C protected from light. The samples were stored on ice and protected from light until analysis by FACScan flow cytometer (Becton Dickinson GmbH, Heidelberg, Germany).

A549 [2] = assay: Cell cycle analysis by flow cytometry; assay type: cell-based, human; settings: IC50 concentration, 96 h
Method: as §1

CaCo2 [3] = assay: Cell cycle analysis by flow cytometry; assay type: cell-based, human; settings: IC50 concentration, 96 h
Method: as §1

BetaD5 [4] = assay: Cell cycle analysis by flow cytometry; assay type: cell-based, mouse; settings: IC50 concentration, 96 h
Method: as §1

GammaD12 [5] = assay: Cell cycle analysis by flow cytometry; assay type: cell-based, mouse; settings: IC50 concentration, 96 h
Method: as §1

GammaA3 [6] = assay: Cell cycle analysis by flow cytometry; assay type: cell-based, mouse; settings: IC50 concentration, 96 h
Method: as §1

A2C12 [7] = assay: Cell cycle analysis by flow cytometry; assay type: cell-based, mouse; settings: IC50 concentration, 96 h
Method: as §1

HepG2 [8] = assay: MTS cell viability assay; assay type: cell-based, human
Method: (§2) Three human and eleven murine cancer cell lines were used. The human NSCLC cell line A549 (ACC 107) and the human colorectal carcinoma cell line CaCo2 (ACC 169) were obtained from Deutsche Sammlung von Mikroorganismen und Zellkulturen (DSMZ, Braunschweig, Germany). The human hepatocellular carcinoma cell line HepG2 (HB-8065) was obtained from American Type Culture Collection (Manassas, VA, USA). The 11 murine NSCLC cell lines were established as described recently. Cells were grown in monolayer cultures in DMEM containing 10% foetal calf serum, 4 mmol/l L-glutamine and 2% Penicillin/Streptomycin at 37°C in a humidified atmosphere of 95% air and 5% CO2.
(§3) Cell culture viability was monitored by CellTiter96® AQueous One Solution Cell Proliferation Assay (Promega GmbH, Mannheim, Germany). The cells were seeded in triplicates in 96-well microtitre plates and treated with the dual kinase inhibitors or vehicle (0.2% DMSO). After 24 h or 96 h of treatment the MTS tetrazolium reagent was added to the cells and incubated for 1 h. Absorbance at 490 nm was assayed with a Victor3 Wallac 1420 Multilabel counter (PerkinElmer, Waltham, MA, USA).

A549 [9] = assay: MTS cell viability assay; assay type: cell-based, human
Method: as §2, §3

CaCo2 [10] = assay: MTS cell viability assay; assay type: cell-based, human
Method: as §2, §3

BetaD5 [11] = assay: MTS cell viability assay; assay type: cell-based, mouse
Method: as §2, §3

GammaD12 [12] = assay: MTS cell viability assay; assay type: cell-based, mouse; settings: MTS
Method: as §2, §3

GammaA3 [13] = assay: MTS cell viability assay; assay type: cell-based, mouse
Method: as §2, §3

A2C12 [14] = assay: MTS cell viability assay; assay type: cell-based, mouse
Method: as §2, §3

[15] = 24 h, read-out: Calculated IC50 after single treatment for 24 h
[16] = 96 h, read-out: Calculated IC50 after daily treatment for 96 h

Structure (SMILES) | Cells in G1 phase (HepG2 [1]) | Cells in G2 phase (HepG2 [1]) | Cells in S phase (HepG2 [1]) | Cells in G1 phase (A549 [2]) | Cells in G2 phase (A549 [2]) | Cells in S phase (A549 [2]) | Cells in G1 phase (CaCo2 [3]) | Cells in G2 phase (CaCo2 [3]) | Cells in S phase (CaCo2 [3]) | Cells in G1 phase (BetaD5 [4]) | Cells in G2 phase (BetaD5 [4]) | Cells in S phase (BetaD5 [4]) | Cells in G1 phase (GammaD12 [5]) | Cells in G2 phase (GammaD12 [5]) | Cells in S phase (GammaD12 [5]) | Cells in G1 phase (GammaA3 [6]) | Cells in G2 phase (GammaA3 [6]) | Cells in S phase (GammaA3 [6]) | Cells in G1 phase (A2C12 [7]) | Cells in G2 phase (A2C12 [7]) | other results
Fc1ccc(C(Cl)Cn2ncc3c(Nc4cccc(Cl)c4)ncnc32)cc1 (centres unmarked) [Si104] | 56.2% | 8.1% | 35.6% | 68.1% | 5.5% | 26.4% | 51% | 10.9% | 38.1% | 57.4% | 25.3% | 17.3% | 35.3% | 7.8% | 56.9% | 61.9% | 16.9% | 21.2% | 45.8% | 13.8% | Cells in S phase (A2C12 [7]): 40.4%; IC50 (HepG2 [8]; [15]): 40.9 ± 1.7 µM; IC50 (HepG2 [8]; [16]): 10.3 ± 0.7 µM; IC50 (A549 [9]; [15]): 17.8 ± 2.6 µM; IC50 (A549 [9]; [16]): 6.8 ± 0.1 µM; IC50 (CaCo2 [10]; [15]): 40.8 ± 1.7 µM; IC50 (CaCo2 [10]; [16]): 5.8 ± 0.2 µM; IC50 (BetaD5 [11]; [15]): 12.6 ± 2.6 µM; IC50 (BetaD5 [11]; [16]): 12.4 ± 1 µM; IC50 (GammaD12 [12]; [15]): 13.2 ± 0.9 µM; IC50 (GammaD12 [12]; [16]): 9.2 ± 0.5 µM; IC50 (GammaA3 [13]; [15]): 18.3 ± 0.7 µM; IC50 (GammaA3 [13]; [16]): 11.4 ± 0.3 µM; IC50 (A2C12 [14]; [15]): 16.2 ± 1 µM; IC50 (A2C12 [14]; [16]): 6.5 ± 0.3 µM
CSc1nc(NCCc2ccccc2)c2cnn(CC(Cl)c3ccc(F)cc3)c2n1 (centres unmarked) [Si66] | 61.1% | 9.2% | 29.8% | 68.6% | 5.3% | 26.1% | 61% | 5.8% | 33.3% | 52.7% | 25.6% | 21.7% | 32.1% | 6.7% | 61.5% | 58.4% | 18.5% | 23.1% | 65.3% | 11.8% | Cells in S phase (A2C12 [7]): 22.9%; IC50 (HepG2 [8]; [15]): 44.7 ± 5.9 µM; IC50 (HepG2 [8]; [16]): 8.2 ± 0.6 µM; IC50 (A549 [9]; [15]): 21.6 ± 2.6 µM; IC50 (A549 [9]; [16]): 7.1 ± 0.1 µM; IC50 (CaCo2 [10]; [15]): 44.7 ± 5.9 µM; IC50 (CaCo2 [10]; [16]): 6 ± 0.1 µM; IC50 (BetaD5 [11]; [15]): 20.7 ± 0.4 µM; IC50 (BetaD5 [11]; [16]): 10.3 ± 0.3 µM; IC50 (GammaD12 [12]; [15]): 14.2 ± 1.7 µM; IC50 (GammaD12 [12]; [16]): 4.8 ± 0.4 µM; IC50 (GammaA3 [13]; [15]): 23.7 ± 2 µM; IC50 (GammaA3 [13]; [16]): 9.1 ± 0.2 µM; IC50 (A2C12 [14]; [15]): 23.7 ± 2.2 µM; IC50 (A2C12 [14]; [16]): 6.9 ± 0.4 µM
CSc1nc(Nc2cccc(F)c2)c2cnn(CC(Cl)c3ccc(F)cc3)c2n1 (centres unmarked) [Si93] | 55% | 9.6% | 35.4% | 72.6% | 5% | 22.4% | 59.3% | 9.5% | 31.1% | 42.4% | 25.2% | 22.1% | 39.5% | 14.7% | 45.8% | 76.1% | 16.6% | 7.2% | 56.8% | 14.6% | Cells in S phase (A2C12 [7]): 28.6%; IC50 (HepG2 [8]; [15]): 65.6 ± 2.7 µM; IC50 (HepG2 [8]; [16]): 19.1 ± 1.6 µM; IC50 (A549 [9]; [15]): 21.5 ± 4.2 µM; IC50 (A549 [9]; [16]): 6.5 ± 0.2 µM; IC50 (CaCo2 [10]; [15]): 65.6 ± 2.7 µM; IC50 (CaCo2 [10]; [16]): 6.4 ± 0.1 µM; IC50 (BetaD5 [11]; [15]): 13.8 ± 2 µM; IC50 (BetaD5 [11]; [16]): 10.4 ± 0.5 µM; IC50 (GammaD12 [12]; [15]): 11.8 ± 0.4 µM; IC50 (GammaD12 [12]; [16]): 8.8 ± 0.3 µM; IC50 (GammaA3 [13]; [15]): 15.6 ± 0.6 µM; IC50 (GammaA3 [13]; [16]): 7.7 ± 0.4 µM; IC50 (A2C12 [14]; [15]): 16.9 ± 0.9 µM; IC50 (A2C12 [14]; [16]): 6.5 ± 0.3 µM
CSc1nc(NCc2ccccc2)c2cnn(CC(Cl)c3ccccc3)c2n1 (centres unmarked) [Si34] | 52% | 13.2% | 34.7% | 67.3% | 5.6% | 27.1% | 52.9% | 10.5% | 36.7% | 65.8% | 23.1% | 11.1% | 36.2% | 7.9% | 55.9% | 68.6% | 16.8% | 14.6% | 74.5% | 9.7% | Cells in S phase (A2C12 [7]): 15.7%; IC50 (HepG2 [8]; [15]): 58.5 ± 3 µM; IC50 (HepG2 [8]; [16]): 26.7 ± 4.8 µM; IC50 (A549 [9]; [15]): 69.5 ± 27.7 µM; IC50 (A549 [9]; [16]): 10.4 ± 0.4 µM; IC50 (CaCo2 [10]; [15]): 58.2 ± 4.2 µM; IC50 (CaCo2 [10]; [16]): 5.9 ± 0.1 µM; IC50 (BetaD5 [11]; [15]): 37 ± 2.3 µM; IC50 (BetaD5 [11]; [16]): 9.6 ± 0.2 µM; IC50 (GammaD12 [12]; [15]): 23.2 ± 2.5 µM; IC50 (GammaD12 [12]; [16]): 8.8 ± 1.4 µM; IC50 (GammaA3 [13]; [15]): 25.2 ± 3.1 µM; IC50 (GammaA3 [13]; [16]): 10.7 ± 0.6 µM; IC50 (A2C12 [14]; [15]): 32.8 ± 4.8 µM; IC50 (A2C12 [14]; [16]): 8.3 ± 0.3 µM

From PMC2994747, “Molecular Characterization of c-Abl/c-Src Kinase Inhibitors Targeted against Murine Tumour Progenitor Cells that Express Stem Cell Markers” (PLoS ONE, 2010)
